± gives the standard deviation of the averaged measurements.
Assays:
[1] = compound: Cn1cc(C2=Nc3cc(NC(=O)C(N)C4CCCCC4)cc4c3C2=CNNC4=O)cn1; experiment: surviving fraction relative to DMSO-only wells; higher = less growth inhibition; details: exposure time: 5 days
In short: (§1)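 Log-phase tumour cell lines, 250–500 cells per well in 384-well plates, received inhibitors at 0.5, 1, 5, 10, 50, 100, 500 and 1000 nM continuously for five days, starting 24 hours after seeding. Viability was quantified with CellTiter-Glo luminescence and normalised to the median of DMSO-only wells to give surviving fraction. Three screens were run per line, and a line stayed in only with replicate Pearson r >0.7 and median Z' >0.3.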

CANERTINIB = compound: C=CC(=O)Nc1cc2c(Nc3ccc(F)c(Cl)c3)ncnc2cc1OCCCN1CCOCC1 [CANERTINIB]; experiment: as above; details: exposure time: 5 days
In short: as §1

Row | Test System | surviving fraction ([1]; 0.5 nM) | surviving fraction ([1]; 1 nM) | surviving fraction ([1]; 5 nM) | surviving fraction ([1]; 10 nM) | surviving fraction ([1]; 50 nM) | surviving fraction ([1]; 100 nM) | surviving fraction ([1]; 500 nM) | surviving fraction ([1]; 1000 nM) | surviving fraction (CANERTINIB; 0.5 nM) | surviving fraction (CANERTINIB; 1 nM) | surviving fraction (CANERTINIB; 5 nM) | surviving fraction (CANERTINIB; 10 nM) | surviving fraction (CANERTINIB; 50 nM) | surviving fraction (CANERTINIB; 100 nM) | surviving fraction (CANERTINIB; 500 nM) | surviving fraction (CANERTINIB; 1000 nM)
1 | JURKAT HAEMATOPOIETIC AND LYMPHOID TISSUE | 1.08 ± 0.016 | 1.13 ± 0.013 | 1.07 ± 0.021 | 1.06 ± 0.036 | 0.868 ± 0.019 | 0.295 ± 0.022 | 0.023 | 0.0237 ± 0.00058 | 1.01 ± 0.025 | 0.977 ± 0.045 | 1.02 ± 0.018 | 0.952 ± 0.041 | 0.978 ± 0.03 | 0.978 ± 0.014 | 1.01 ± 0.031 | 0.839 ± 0.043
2 | KPD BONE | 0.953 ± 0.041 | 0.891 ± 0.018 | 1.19 ± 0.24 | 0.977 ± 0.026 | 0.84 ± 0.028 | 0.389 ± 0.021 | 0.0873 ± 0.0023 | 0.0763 ± 0.008 | 0.943 ± 0.043 | 0.947 ± 0.076 | 0.962 ± 0.026 | 0.929 ± 0.023 | 0.917 ± 0.068 | 0.922 ± 0.04 | 0.776 ± 0.048 | 0.497 ± 0.047
3 | LM7 BONE | 0.979 ± 0.073 | 0.898 ± 0.06 | 1.04 ± 0.07 | 1.01 ± 0.11 | 0.826 ± 0.017 | 0.651 ± 0.033 | 0.119 ± 0.015 | 0.0753 ± 0.0038 | 0.739 ± 0.015 | 0.657 ± 0.0061 | 0.791 ± 0.019 | 0.75 ± 0.012 | 0.88 ± 0.044 | 0.872 ± 0.085 | 0.655 ± 0.026 | 0.536 ± 0.027
4 | LNCAP PROSTATE | 0.922 ± 0.12 | 1.11 ± 0.11 | 0.926 ± 0.14 | 0.915 ± 0.15 | 1.23 ± 0.052 | 1.06 ± 0.12 | 0.544 ± 0.024 | 0.287 ± 0.031 | 1.1 ± 0.078 | 1 ± 0.059 | 1.09 ± 0.06 | 1.08 ± 0.036 | 1.01 ± 0.057 | 1.04 ± 0.055 | 0.935 ± 0.093 | 0.782 ± 0.086
5 | MCF7 BREAST | 0.913 ± 0.043 | 0.918 ± 0.052 | 0.92 ± 0.023 | 0.865 ± 0.022 | 0.989 ± 0.022 | 0.885 ± 0.029 | 0.745 ± 0.02 | 0.575 ± 0.011 | 0.838 ± 0.027 | 0.831 ± 0.023 | 0.818 ± 0.02 | 0.79 ± 0.018 | 0.888 ± 0.02 | 0.859 ± 0.039 | 0.854 ± 0.082 | 0.808 ± 0.026
6 | MDAMB157 BREAST | 0.982 ± 0.061 | 0.965 ± 0.13 | 1.02 ± 0.065 | 0.994 ± 0.12 | 1 ± 0.044 | 0.916 ± 0.1 | 0.425 ± 0.057 | 0.172 ± 0.043 | 0.847 ± 0.035 | 0.86 ± 0.088 | 0.858 ± 0.048 | 0.936 ± 0.049 | 0.921 ± 0.067 | 0.844 ± 0.089 | 0.753 ± 0.013 | 0.658 ± 0.051
7 | MDAMB231 BREAST | 0.95 ± 0.016 | 0.949 ± 0.031 | 0.964 ± 0.015 | 0.953 ± 0.032 | 0.908 ± 0.029 | 0.896 ± 0.019 | 0.544 ± 0.04 | 0.278 ± 0.01 | 0.93 ± 0.033 | 0.937 ± 0.027 | 0.956 ± 0.022 | 0.946 ± 0.031 | 0.986 ± 0.021 | 0.989 ± 0.029 | 0.874 ± 0.02 | 0.746 ± 0.039
8 | MDAMB361 BREAST | 0.751 ± 0.014 | 0.706 ± 0.065 | 0.71 ± 0.023 | 0.656 ± 0.061 | 0.456 ± 0.028 | 0.399 ± 0.032 | 0.43 ± 0.013 | 0.49 ± 0.013 | 0.704 ± 0.05 | 0.718 ± 0.16 | 0.642 ± 0.011 | 0.674 ± 0.078 | 0.74 ± 0.064 | 0.832 ± 0.092 | 0.691 ± 0.067 | 0.682 ± 0.053

From the supplement of paper PMC6045584
